Data reported in patent US11413280B2 (The Board of Trustees of the Leland Stanford Junior …, priority 2017, dated 2022).

Assays:
Type in all cases: cell-based, human
[1] = test system: PAEC; assay: Matrigel tube formation assay; conditions: FHIT- and BMPR2-deficient PAECs, 15 μM Enzastaurin for 24 hours
Protocol: (§1) Assays were conducted according to the manufacturer's instructions and as previously described(E1,E9).
(§2) Quantified area=% of cells that show nuclear γH2AX staining quantified with automated software (white nuclei=positive stain, grey nuclei=background stain). […] FIGS. 9G-9H, MTT proliferation assay in Enzastaurin-treated (0.5-50 M) in PASMC and PAEC, respectively. (n=3). FIGS. 9I-9J, MTT proliferation assay in Enzastaurin-treated (5 M) siFHIT and siBMPR2 transfected PASMC compared to Ntsi control, respectively. (n=3).
Loss of FHIT and BMPR2 impaired PAECs tube formation 6 hours after cells were seeded in a Matrigel tube formation assay(12) compared to cells treated with control Ntsi (FIG. 9A, FIG. 9B).

[2] = test system: PAEC; assay: Trypan Blue viability assay and total cell counts
[3] = test system: Caspase 3/7 in PAECs; assay: Caspase-Glo 3/7 apoptosis assay
Protocol: as §1, §2
(§3) As a cumulative viability measurement, we quantified caspase3/7 activity, using the luminescent Caspase-Glo®3/7 assay(36) and DNA damage, using histone H2AX phosphorylation by immunofluorescence and quantification as nuclear area staining (%) by confocal microscopy(34, 35, 37). […] PAEC proliferation was assessed via an MTT proliferation assay and hemocytometer cell counts(36).

[4] = test system: FHIT; assay: Relative FHIT mRNA expression in PAECs (qPCR); conditions: PAEC, 24 hours, low doses (5-15 uM), FIG. 14
Protocol: (§4) Human PAEC (Promocell) or human PASMC (Promocell) were grown as monolayers in gelatin-coated dishes in a commercial EC (Promocell) or SMC (Promocell) media, respectively. Cells were passaged at 1:3 ratios and used for experiments from passages 3-8. Transformed lymphocytes (i.e., lymphoblasts) were cultured in RPMI 1640 with 10-15% FBS.
(§5) FHIT expression was modulated by RNAi in PA endothelial cells (PAEC). A pool of 4 siRNAs for BMPR2, FHIT, LCK or a non-targeting control pool (Dharmacon) were transfected into PAECs using the RNAi Max kit (Invitrogen) for 48 hours. mRNA knockdown efficiency was determined by qPCR.
(§6) For mRNA, total RNA was extracted from whole lung tissue using the RNAeasy Plus Kit (Qiagen) and reverse transcribed into cDNA using random primers with the Taqman cDNA reverse transcription Kit (Applied Biosciences) according to the manufacturer's instructions. For miR, total miR was isolated from whole lung tissue using the Taqman miRNA ABC purification Kit (Applied Biosciences) and was reverse transcribed using specific primers and the Taqman microRNA reverse transcription kit (Applied Biosciences). mRNA and miR expression levels were quantified using Taqman primer/probe sets for the target and normalized to a housekeeping control (mRNA: GAPDH; miR: RNU48). […]

[5] = test system: PAEC; assay: γH2AX staining (DNA damage); conditions: siBMPR2 and siFHIT PAEC, 10 μM Enzastaurin for 24 hours
Protocol: as §1
Quantified area=% of cells that show nuclear γH2AX staining quantified with automated software (white nuclei=positive stain, grey nuclei=background stain). […] (n=3). […] (n=3).
as §3

[6] = test system: BMPR2; assay: Relative BMPR2 mRNA expression in PAECs (qPCR); conditions: PAEC, 24 hours, low doses (5-15 uM), FIG. 14
Protocol: as §4, §5, §6

Cn1cc(C2=C(c3cn(C4CCN(Cc5ccccn5)CC4)c4ccccc34)C(=O)NC2=O)c2ccccc21 [Enzastaurin, 3-(1-methyl-1H-indol-3-yl)-4-[1-[1-(pyridin-2-ylmethyl)piperidin-4-yl]-1H-indol-3-yl]-1H-pyrrole-2,5-dione]
Defects in tube formation [1]: fully reversed the defects in tube formation
Total cell counts ([2]; Enzastaurin up to 50 μM): increased cell numbers
Cell toxicity by Trypan Blue viability assay ([2]; varying concentrations of Enzastaurin): did not elicit cell toxicity
Caspase 3/7-mediated apoptosis in synchronised PAECs ([3]; 24 hours, 5 μM or 15 μM Enzastaurin, 5 μM Ly333531 hydrochloride): decreases
Caspase 3/7 luminescence (apoptosis) in siBMPR2 and siFHIT PAEC ([3]; t=48 h post-transfection, 15 μM Enzastaurin): decreased
FHIT expression at low doses in vitro [4]: increased
DNA damage (nuclear γH2AX staining) induced by FHIT or BMPR2-loss [5]: significantly attenuated
BMPR2 expression at low doses in vitro [6]: increased
